{"source": "EPA's ToxValDB 9.5 (doi:10.2903/j.efsa.2016.4475)", "key": {"Rattus norvegicus": {"system": "Rattus norvegicus", "conditions": "oral"}, "Mus musculus": {"system": "Mus musculus", "conditions": "chronic; duration: 103 weeks; oral; diet; mortality"}, "Pontoscolex corethrurus": {"system": "Pontoscolex corethrurus", "conditions": "acute; mortality"}, "Daphnia magna": {"system": "Daphnia magna", "conditions": "acute; mortality"}, "[1]": {"conditions": "chronic, duration: 103 weeks, diet, histopathology: neoplastic"}}, "data": [{"smiles": "CC(=O)O[C@@H]1C[C@H]2CC[C@]1(C)C2(C)C", "note": "[Isobornyl acetate]", "values": [{"measurement": "NOAEL", "setting": "Rattus norvegicus; subchronic, duration: 13 weeks, gavage, M/F, organ weight", "result": 15, "unit": "mg/kg-day"}]}, {"smiles": "CC(=O)/C=C/C1=C(C)CCCC1(C)C", "note": "[beta-Ionone]", "values": [{"measurement": "NOAEL", "setting": "Rattus norvegicus; subchronic, duration: 13 weeks, diet, M/F, body weight", "result": 10, "unit": "mg/kg-day"}]}, {"smiles": "CC(=O)O[C@@H]1C[C@H](C)CC[C@H]1C(C)C", "note": "(racemic) [dl-Menthyl acetate]", "values": [{"measurement": "NOAEL", "setting": "Rattus norvegicus; [1]", "result": 375, "unit": "mg/kg-day"}, {"measurement": "NOAEL", "setting": "Mus musculus", "result": 600, "unit": "mg/kg-day"}]}, {"smiles": "CC1CCC(C(C)C)C(O)C1", "note": "(stereo unspecified) [Menthol]", "values": [{"measurement": "NOAEL", "setting": "Rattus norvegicus; [1]", "result": 375, "unit": "mg/kg-day"}, {"measurement": "NOAEL", "setting": "Mus musculus", "result": 600, "unit": "mg/kg-day"}]}, {"smiles": "CC(=O)OC1CCCCC1", "note": "[Cyclohexyl acetate]", "values": [{"measurement": "LC50", "setting": "Pontoscolex corethrurus", "result": 1150, "unit": "mg/kg"}]}, {"smiles": "CCCCCC1C(=O)CCC1CC(=O)OC", "note": "(stereo unspecified) [Methyl dihydrojasmonate]", "values": [{"measurement": "NOAEL", "setting": "Rattus norvegicus; subchronic, duration: 13 weeks, diet, M/F, Sprague-Dawley, no effects", "result": 100, "unit": "mg/kg-day"}, {"measurement": "LC50", "setting": "Pontoscolex corethrurus", "result": 1430, "unit": "mg/kg"}]}, {"smiles": "CC(=O)/C=C/C1C(C)=CCC(C)C1(C)C", "note": "(stereo not drawn) [alpha-Irone]", "values": [{"measurement": "LC50", "setting": "Daphnia magna", "result": 0.513, "unit": "µg/mL"}]}, {"smiles": "CC(=O)/C=C/C1C(C)=CCCC1(C)C", "note": "(stereo not drawn) [alpha-Ionone]", "values": [{"measurement": "NOAEL", "setting": "Rattus norvegicus; subchronic, duration: 13 weeks, diet, M/F, food consumption", "result": 10, "unit": "mg/kg-day"}]}]}
